Source: patent publication EP4371976B1, “IONIZABLE LIPIDS AND LIPID NANOPARTICLES CONTAINING THEREOF” (Certest Biotec, S.L., priority 2022, dated 2024)

How the values were obtained:
[1] = RNA encapsulation efficiency of LNPs by Quant-IT Ribogreen; type: physicochemical; settings: for Encaps. efficiency (%): LNPs with luciferase mRNA, ionizable lipid:non-cationic lipid:sterol:PEG-modified lipid 50:10:38.5:1.5, percentage of RNA entrapped in the LNP
Protocol: The mRNA aqueous solution was then carefully added to the ethanol solution, and the resulted solution was homogenized by pipetting up and down for 4-5 times. The resulting LNPs were immediately diluted 1:1 with Tris buffer and dialyzed overnight against Tris buffer containing 15% sucrose. The resulting LNP solution was then collected, and the encapsulated mRNA was assessed by Quant-IT® Ribogreen (Invitrogen R11490) following the manufacturer's instructions.
(§1) The LNP solution was then adjusted to a final concentration of mRNA of 100 µg/ml. Size distribution, polydispersity and Z-potential were measured by dynamic light scattering (DLS) using Malvern Zetasizer Advance Lab Blue Label. RNA encapsulation was assessed by Quant-IT® Ribogreen following the manufacturer's instructions.

[2] = Size distribution, polydispersity and Z-potential of LNPs by dynamic light scattering (Malvern Zetasizer); type: physicochemical; settings: LNPs, standard formulation 50:10:38.5:1.5; DLS
Protocol: as §1

Compound	Encaps. efficiency (%) [1]	P.D.I. [2]	Particle size/ Ø (nm) [2]	Z Potential (± D.E.) [mV] [2]	Encaps. efficiency ([1]; Table 8, LNP 50:10:38.5:1.5, luciferase mRNA)
CCCCCCCCCCCCCOC(=O)CCSCCC(NC(=O)C(CCCCCCCC)CCCCCCCCCC)C(=O)NC1CCN(C)CC1 (stereo not shown) [VC-LC-0556]	54.53%	0.14	156.7 nm	-7.57 mV	–
CCCCCCCCC(CCCCCC)C(=O)NC(CCSCCC(=O)OCCCCCCCC(C)C)C(=O)NCCN1CCN(C)CC1 (stereo not shown) [VC-LC-0180]	87.95%	0.19	197.5 nm	-4.28 mV	–
CCCCCCCCCCCCCCCCCCCCCCOC(=O)CCSCC(CC(=O)NC1CCN(C)CC1)C(=O)OCC(CCCCCC)CCCCCCCC (stereo not shown) [VC-LC-0533]	98.35%	0.19	178.1 nm	5.74 mV	–
CCCCCCCCCCCCCCCCCCCCCCOC(=O)CCSCC(CC(=O)NCCCn1ccnc1)C(=O)OC(CCCCCCCC)CCCCCCCC (stereo not shown) [VC-LC-0304]	54.05%	0.26	–	-23.20 mV	–
CCCCCCCCCCCCCCCCOC(=O)CCSCCC(NC(=O)C(CCCCCC)CCCCCCCC)C(=O)NC1CCN(C)CC1 (stereo not shown) [VC-LC-0216]	52.13%	0.35	–	-20.53 mV	–
CCCCCCCCCCCCCCOC(=O)CCSCCC(NC(=O)C(CCCCCC)CCCCCCCC)C(=O)NCCCN(C)C (stereo not shown) [VC-LC-0104]	100.00%	–	–	0.00 mV	–
CCCCCCCCOC(=O)CCSCCC(NC(=O)C(CCCCCC)CCCCCCCC)C(=O)NCCCn1ccnc1 (stereo not shown) [VC-LC-0269]	36.60%	0.15	176.7 nm	-10.28 mV	–
CCCCCCCCC(CCCCCC)C(=O)NC(CCSCCC(=O)OCCCCCC(C)C)C(=O)NCCCN(C)C (stereo not shown) [VC-LC-0107]	100.00%	–	–	0.00 mV	–
CCCCCCCCC(CCCCCC)C(=O)NC(CCSCCC(=O)OCCCCCCCC(C)C)C(=O)NCCCN1CCCC1 (stereo not shown) [VC-LC-0243]	93.35%	0.18	197.6 nm	2.43 mV	–
CCCCCCCCC(CCCCCC)C(=O)NC(CCSCCC(=O)OCC(CC)CCCC)C(=O)NC1CCN(C)CC1 (stereo not shown) [VC-LC-0212]	83.35%	0.26	179 nm	-20.85 mV	–
CCCCCCCCC(CCCCCC)C(=O)NC(CCSCCC(=O)OCCCCCCCC(C)C)C(=O)NC1CCN(C)CC1 (stereo not shown) [VC-LC-0211]	67.87%	0.14	181 nm	-4.59 mV	–
CCCCCCCCCCCCOC(=O)CCSCC(CC(=O)NC1CCN(C)CC1)C(=O)OCC(CCCCCC)CCCCCCCC (stereo not shown) [VC-LC-0528]	98.83%	0.2	137.4 nm	4.55 mV	–
CCCCCCCCCCCCCOC(=O)CCSCC(CC(=O)NC1CCN(C)CC1)C(=O)OCC(CCCCCC)CCCCCCCC (stereo not shown) [VC-LC-0524]	97.01%	0.15	129.9 nm	3.83 mV	–
CCCCCCCCCCCCOC(=O)CCSCCC(NC(=O)C(CCCCCC)CCCCCCCC)C(=O)NCCCN(C)C (stereo not shown) [VC-LC-0103]	100.00%	–	–	0.00 mV	–
CCCCCCCC#CCOC(=O)CCSCCC(NC(=O)CCCCCCCCCCCCCCCCC)C(=O)NC1CCN(C)CC1 (stereo not shown) [VC-LC-0437]	99.92%	0.23	152 nm	7.76 mV	–
CCCCCCCCCCCCOC(=O)CCSCCC(NC(=O)C(CCCCCC)CCCCCCCC)C(=O)NCCN1CCN(C)CC1 (stereo not shown) [VC-LC-0182]	91.18%	0.22	217.1 nm	-2.72 mV	–
CCCCCCCCCCCCCCCCOC(=O)CCSCCC(NC(=O)C(CCCCCC)CCCCCCCC)C(=O)NCCCN(C)C (stereo not shown) [VC-LC-0106]	98.70%	–	–	0.00 mV	–
CCCCCCCCOC(=O)CCSCCC(NC(=O)C(CCCCCC)CCCCCCCC)C(=O)NCCN1CCN(C)CC1 (stereo not shown) [VC-LC-0191]	87.02%	0.11	135.2 nm	4.77 mV	–
CCCCCCCCCCCCCCCCCCCCCCOC(=O)CCSCCC(C(=O)NCCCn1ccnc1)C(=O)OC(CCCCCCCC)CCCCCCCC (stereo not shown) [VC-LC-0363]	63.87%	0.18	143.9 nm	-17.92 mV	–
CCCCCCCCCCCCCCCCCCOC(=O)CCSCCC(C(=O)NCCCn1ccnc1)C(=O)OC(CCCCCCCC)CCCCCCCC (stereo not shown) [VC-LC-0368]	89.08%	0.1	140.9 nm	-15.81 mV	–
CCCCCCCC/C=C\CCCCCCCC(=O)NC(CCSCCC(=O)OCCCCCC(C)C)C(=O)NCCCN(CCO)CCO (stereo not shown) [VC-LC-0293]	92.48%	0.13	178.6 nm	12.29 mV	–
CCCCCCCCCCCCCOC(=O)CCSCCC(NC(=O)C(CCCCCC)CCCCCCCC)C(=O)NCCCN(C)C (stereo not shown) [VC-LC-0099]	98.48%	–	–	0.00 mV	–
CCCCCCCCCCCCOC(=O)CCSCCC(C(=O)NCCCN1CCOCC1)C(=O)OCC(CCCCCC)CCCCCCCC (stereo not shown) [VC-LC-0609]	54.21%	0.16	168.6 nm	-20.42 mV	–
CCCCCCCC/C=C\CCCCCCCCOC(=O)CCSCCC(C(=O)NC1CCN(C)CC1)C(=O)OC(CCCCCCCC)CCCCCCCC (stereo not shown) [VC-LC-0443]	86.01%	0.13	181.3 nm	-2.92 mV	86.01%
